Test results as given in US20240301409A1, “Chemically Modified Small Activating RNA” (RACTIGEN THERAPEUTICS, priority 2021, published 2024).
Oligonucleotides are written 5' to 3', each unit as a sugar letter and its base; * is a phosphorothioate linkage, no mark a phosphodiester; rarer units and linkages stand in square brackets, end groups in braces. Plain capitals give the bases only. m = 2'-O-methyl; r = 2'-OH (RNA); f = 2'-fluoro

What was measured:
[1] = biological target: T1, RNase A (Bos taurus, UniProt P61823)
T1 sequence (P61823 27-150): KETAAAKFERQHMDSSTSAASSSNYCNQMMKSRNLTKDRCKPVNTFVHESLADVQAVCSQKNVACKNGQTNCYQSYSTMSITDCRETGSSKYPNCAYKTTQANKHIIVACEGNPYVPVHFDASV

[2] = tested on: Rag1-40 target sequence in the 3′ UTR of firefly luciferase, COS-1 cells
[3] = tested on: J82 cells; assay: Cellular proliferation assay (CCK8) in J82 cells, combined with Mitomycin C or valrubicin; type: cell-based, human
Protocol: J82 cells were transfected with RAG1-40-31 at concentrations of 0.1, 0.5, 1, 5, 10, 25 and 50 nM for 24 hours, and then Mitomycin C at concentrations of 1, 10, 100, 1000 and 10000 nM was added. The combined treatment was carried out with concentrations in pairs. After treatment, the proliferation of cells was detected using CCK8 kit. FIGS. 14A-14B show the relative proliferation proportion of J82 cells after the combined treatment with chemically modified saRNA RAG1-40-31 and valrubicin. […] Control and DMSO are the blank transfection control and the solvent for dilution control, respectively.
(§1) J82 cells were transfected with RAG1-40-31 at concentrations of 0.1, 0.5, 1, 5, 10, 25 and 50 nM for 24 hours, and then valrubicin at concentrations of 1, 10, 100, 1000 and 10000 nM was added. The combined treatment was carried out with concentrations in pairs. After treatment, the cellular proliferation was detected by CCK8 kit. FIGS. 15A-15B show the relative proliferation proportion of T24 cells after the combined treatment with chemically modified saRNA RAG1-40-31 and Mitomycin C. […] Control and DMSO are the blank transfection control and the solvent for dilution control, respectively.
(§2) Human bladder cancer cells Ku-7-LG (ATCC), J82 (ATCC) and T24 (ATCC) were cultured in McCoy medium (Gibco) comprising 10% calf serum (Sigma-Aldrich) and 1% penicillin/Streptomycin (Gibco). Cells were cultured at 37° C. under 5% CO2. Ku-7-LG, J82 and T24 cells were plated into 12-well plates at 10×10^4 cells per well, transfected with the small RNA at a concentration of 10 nM (unless otherwise specified) for three days, using RNAiMax (Invitrogen, Carlsbad, CA) according to the manufacturer's instructions. Two replicate wells were set for each treatment.
(§3) Cells were plated in a 96-well plate at 2˜4×10^3 cells/well, cultured overnight, and transfected with the oligonucleotide duplexes. Three days after transfection, CCK8 (Dojindo) was used to detect cellular proliferation following manufacturer's instructions. The experimental steps are briefly described as follows: 10 μL of CCK8 solution was added to each well, incubated at 37° C. for 1 hour, and then the absorbance at 450 nm was measured using a microplate reader.
In this example, chemically modified saRNA RAG1-40-31 was used in combination with clinical chemical agents to evaluate the suppressing effect of the combined agents on cancer cells.

[4] = tested on: T24 cells; assay: Cellular proliferation assay (CCK8) in T24 cells, alone and combined with Mitomycin C or valrubicin; type: cell-based, human
Source text: After the transfection, the number of viable cells was detected with a CCK8 kit, and plotted as the percentage of the blank control treatment group. […] A transfection sample without oligonucleotide served as a blank control. Non-specific duplex (dsCon) transfected sample served as a negative control. Data are presented as mean±SD of at least two independent experiments. The values below the dashed line indicate stronger growth inhibitory activity compared to duplex Rag1-40 without chemical modification.
as §1, with “T24” for “J82”, “Mitomycin C was added” for “valrubicin”, “nM.” for “nM was added.”, “16A-16B” for “15A-15B”, “valrubicin.” for “Mitomycin C.”
T24 cells were transfected with RAG1-40-31 at concentrations of 0.1, 0.5, 1, 5, 10, 25 and 50 nM for 24 hours, and then valrubicin at concentrations of 1, 10, 100, 1000 and 10000 nM was added. The combined treatment was carried out with concentrations in pairs. After treatment, the cellular proliferation was detected by CCK8 kit.
as §2, §3
It is known that p21 induction by saRNA is that a variety of tumor suppressor factors such as p21 protein suppress the proliferation of cancer cells. To evaluate the effect of chemically modified saRNAs on the function of cancer cells, cells (Ku-7-LG and T24) were transfected with 10 nM unmodified and modified saRNAs for 72 hours, and the cellular proliferation was determined by CCK8. […] Furthermore, there was a correlation between RNA activating activity (FIGS. 7A-7B) and suppression of cellular proliferation activity (FIGS. 8A-8B). Strong p21 activators are usually also strong cytostatics.

Rag1-40-18: saRNA duplex: sense mCmCAACUCAUUCUCCAAG*U*C (SEQ ID NO 15); antisense fUACUfUGGAGAAfUGAGUfUGGfCA (SEQ ID NO 7) (sense CCAACUCAUUCUCCAAGUC; antisense UACUUGGAGAAUGAGUUGGCA; 2'-OMe, 2'-F, phosphorothioate modifications; modified_base (1)..(2) (1,2)=2′-O-methyl(2′-OMe); modified_base (17)..(19) (17,18,19)=phosphorothioate (PS) backbone modification; modified_base (1)..(20) (1,5,12,17,20)=2′-fluoro)
time to complete degradation [1]: ≤ 24 h
off-target effect compared to unmodified Rag1-40, in words [2]: mitigated or similar off-target effects

Rag1-40-12: saRNA duplex: sense fCfCAACUCAUUCUCCAAGfUfC (SEQ ID NO 14); antisense fUACUfUGGAGAAfUGAGUfUGG*fC*A (SEQ ID NO 9) (sense CCAACUCAUUCUCCAAGUC; antisense UACUUGGAGAAUGAGUUGGCA; 2'-F and phosphorothioate modifications; modified_base (1)..(19) (1,2,18,19)=2′-fluoro; modified_base (1)..(20) (1,5,12,17,20)=2′-fluoro; modified_base (19)..(21) (19,20,21)=phosphorothioate (PS) backbone modification)
time to complete degradation [1]: ≤ 24 h
off-target effect compared to unmodified Rag1-40, in words [2]: mitigated or similar off-target effects

Rag1-40-26: saRNA duplex: sense fCfCAACUCAUUCUCCAAG*U*C (SEQ ID NO 16); antisense fUACUfUGGAGAAfUGAGUfUGGfCA (SEQ ID NO 7) (sense fCfCrArArCrUrCrArUrUrCrUrCrCrArArG*rU*rC; antisense fUrArCrUfUrGrGrArGrArAfUrGrArGrUfUrGrGfCrA)
time to complete degradation [1]: ≤ 24 h
off-target effect compared to unmodified Rag1-40, in words [2]: increased off-target effects

Rag1-40-28: saRNA duplex: sense fCfCAACUCAUUCUCCAAG*U*C (SEQ ID NO 16); antisense fUACUfUGGAGAAfUGAGUfUGG*fC*A (SEQ ID NO 9) (sense fCfCrArArCrUrCrArUrUrCrUrCrCrArArG*rU*rC; antisense fUrArCrUfUrGrGrArGrArAfUrGrArGrUfUrGrG*fC*rA)
time to complete degradation [1]: ≤ 24 h
off-target effect compared to unmodified Rag1-40, in words [2]: mitigated or similar off-target effects

Rag1-40-10: saRNA duplex: sense fCfCAACUCAUUCUCCAAGfUfC (SEQ ID NO 14); antisense fUACUfUGGAGAAfUGAGUfUGGfCA (SEQ ID NO 7) (sense CCAACUCAUUCUCCAAGUC; antisense UACUUGGAGAAUGAGUUGGCA; 2'-F modifications; modified_base (1)..(19) (1,2,18,19)=2′-fluoro; modified_base (1)..(20) (1,5,12,17,20)=2′-fluoro)
time to complete degradation [1]: ≤ 24 h
off-target effect compared to unmodified Rag1-40, in words [2]: completely inhibited

CO[C@@]12[C@H](COC(N)=O)C3=C(C(=O)C(C)=C(N)C3=O)N1C[C@@H]1N[C@@H]12 [MMC, Mitomycin C, reference compound]
Relative proliferation proportion of J82 cells ([3]; RAG1-40-31 0 nM + MMC 1 nM): 99.9%
Relative proliferation proportion of J82 cells ([3]; RAG1-40-31 0 nM + MMC 10 nM): 99.9%
Relative proliferation proportion of J82 cells ([3]; RAG1-40-31 0 nM + MMC 100 nM): 99.9%
Relative proliferation proportion of J82 cells ([3]; RAG1-40-31 0 nM + MMC 1000 nM): 100.0%
Relative proliferation proportion of J82 cells ([3]; RAG1-40-31 0 nM + MMC 10000 nM): 100.0%
Relative proliferation proportion of T24 cells ([4]; RAG1-40-31 0 nM + MMC 1 nM): 100.0%
Relative proliferation proportion of T24 cells ([4]; RAG1-40-31 0 nM + MMC 10 nM): 100.0%
Relative proliferation proportion of T24 cells ([4]; RAG1-40-31 0 nM + MMC 100 nM): 100.0%
Relative proliferation proportion of T24 cells ([4]; RAG1-40-31 0 nM + MMC 1000 nM): 100.0%
Relative proliferation proportion of T24 cells ([4]; RAG1-40-31 0 nM + MMC 10000 nM): 100.0%

Rag1-40-2: saRNA duplex: sense mCmCAACUCAUUCUCCAAGmUmC (SEQ ID NO 5); antisense fUACUfUGGAGAAfUGAGUfUGGfCA (SEQ ID NO 7) (sense CCAACUCAUUCUCCAAGUC; antisense UACUUGGAGAAUGAGUUGGCA; 2'-OMe and 2'-F modifications; modified_base (1)..(19) (1,2,18,19)=2′-O-methyl(2′-OMe); modified_base (1)..(20) (1,5,12,17,20)=2′-fluoro)
time to complete degradation [1]: ≤ 24 h
off-target effect compared to unmodified Rag1-40, in words [2]: mitigated or similar off-target effects

Rag1-40-20: saRNA duplex: sense mCmCAACUCAUUCUCCAAG*U*C (SEQ ID NO 15); antisense fUACUfUGGAGAAfUGAGUfUGG*fC*A (SEQ ID NO 9) (sense CCAACUCAUUCUCCAAGUC; antisense UACUUGGAGAAUGAGUUGGCA; 2'-OMe, 2'-F, phosphorothioate modifications; modified_base (1)..(2) (1,2)=2′-O-methyl(2′-OMe); modified_base (17)..(19) (17,18,19)=phosphorothioate (PS) backbone modification; modified_base (1)..(20) (1,5,12,17,20)=2′-fluoro; modified_base (19)..(21) (19,20,21)=phosphorothioate (PS) backbone modification)
time to complete degradation [1]: ≤ 24 h
off-target effect compared to unmodified Rag1-40, in words [2]: mitigated or similar off-target effects

Rag1-40-6: saRNA duplex: sense mCmCAACUCAUUCUCCAAGmUmC (SEQ ID NO 5); antisense fU*A*fCfUfUGGAGAAfUGAGfUfUGG*fC*A (SEQ ID NO 11) (sense mCmCrArArCrUrCrArUrUrCrUrCrCrArArGmUmC; antisense fU*rA*fCfUfUrGrGrArGrArAfUrGrArGfUfUrGrG*fC*rA)
degradation of duplex at 96 hours [1]: little or no signs of degradation
off-target effect compared to unmodified Rag1-40, in words [2]: mitigated or similar off-target effects

CCCCC(=O)OCC(=O)[C@]1(O)Cc2c(O)c3c(c(O)c2[C@@H](O[C@H]2C[C@H](NC(=O)C(F)(F)F)[C@H](O)[C@H](C)O2)C1)C(=O)c1c(OC)cccc1C3=O [valrubicin, Valrubicin, reference compound]
Relative proliferation proportion of J82 cells ([3]; RAG1-40-31 0 nM + valrubicin 1 nM): 100.0%
Relative proliferation proportion of J82 cells ([3]; RAG1-40-31 0 nM + valrubicin 10 nM): 100.0%
Relative proliferation proportion of J82 cells ([3]; RAG1-40-31 0 nM + valrubicin 100 nM): 100.0%
Relative proliferation proportion of J82 cells ([3]; RAG1-40-31 0 nM + valrubicin 1000 nM): 100.0%
Relative proliferation proportion of J82 cells ([3]; RAG1-40-31 0 nM + valrubicin 10000 nM): 100.0%
Relative proliferation proportion of T24 cells ([4]; RAG1-40-31 0 nM + valrubicin 1 nm): 100.0%
Relative proliferation proportion of T24 cells ([4]; RAG1-40-31 0 nM + valrubicin 10 nm): 100.0%
Relative proliferation proportion of T24 cells ([4]; RAG1-40-31 0 nM + valrubicin 100 nm): 100.0%
Relative proliferation proportion of T24 cells ([4]; RAG1-40-31 0 nM + valrubicin 1000 nm): 100.0%
Relative proliferation proportion of T24 cells ([4]; RAG1-40-31 0 nM + valrubicin 10000 nm): 100.0%
